In patent US20240180999A1, “EZRIN PEPTIDE 1 FOR USE IN A METHOD OF TREATING POST COVID-19” (priority 2021, published 2024):
No end group written: not given here.

Experiments:
LONG-COVID-19 symptoms = experiment: Treatment of patients suffering from post-COVID-19 syndrome (long COVID) with daily s.c. injection of HEP-1, single case reports; format: in vivo, human
[1] = Toxicity at high dosages (general statement); format: in vivo; conditions: high dosages of 50 mg per kg of body weight per day or higher
Description: The dosage of Ezrin peptide 1 and its analogues of the formula (I) is not particularly critical, as Ezrin peptide 1 and its analogues are not toxic even at high dosages of 50 mg per kg of body weight per day or higher. Preferably, Ezrin peptide 1 and its analogues are administered to an adult human in an amount of at least 0.05 milligrams per day (mg/d), in particular at least 0.1 mg/d, e.g. in an amount of 0.05 to 5 mg/d, in particular 0.1 to 2 mg/d or 0.1 to 1 mg/d or 0.1 to 0.5 mg/d. Typically, for parenteral administrations lower dosages will be required than for oral or rectal administration. To achieve a rapid relief of the symptoms of post-COVID-19 syndrome, it may also be reasonable to administer at least 0.5 mg per day or at least 1 mg per day, e.g. in the range of 0.5 to 5 mg/d, but in other cases a lower dosage may be suitable. It is also possible to start with a higher dosage, e. g. in the range of 0.5 to 5 mg/d, more preferably 0.5 to 3 mg/d and then continue with a lower dosage of e.g. 0.05 to 0.5 mg/d or 0.1 to 0.5 mg/day. A single administration of Ezrin peptide 1 and/or one of its analogues of the formula (I) may be sufficient to ameliorate or even cure the symptoms of a post-COVID-19 syndrome. […] Depending on the severity of the symptoms, this time period is typically in the range of 5 days to 10 weeks and in particular in the range of 10 days to 8 weeks.

cell cultures = conditions: R. Ataullakhanov et al. 2005; cited from earlier work
[2] = test system: inflammatory cytokine production; conditions: cell cultures; cited from earlier work

For “TEKKRRETVEREKE [HEP-1, NH2_Thr-Glu-Lys-Lys-Arg-Arg-Glu-Thr-Val-Glu-Arg-Glu-Lys-Glu_COOH]”, the “final clinical outcome of long COVID” value (LONG-COVID-19 symptoms; Example 1, person, HEP-1 0.2 mg s.c. per day 22 Jan. 2021 until Mar. 10 2021, assessed 10 Mar. 2021) was “complete recovery”, the “mental ability (short memory) and physical strength (walking distance), interim outcome” value (shortened to “mental ability”) (LONG-COVID-19 symptoms; Example 1, person, HEP-1 0.2 mg s.c. per day from 22 Jan. 2021, assessed 29 Jan. 2021) was “remarkable improvement” and the “mental ability” value (LONG-COVID-19 symptoms; Example 2, person, ankylosis spondylitis, HEP-1 0.2 mg s.c. per day from 26 Feb. 2021, assessed 4 Mar. 2021) was “remarkable improvement”. The “final clinical outcome of long COVID” value (LONG-COVID-19 symptoms; Example 2, person, HEP-1 0.2 mg s.c. per day 26 Feb. 2021 until Mar. 17 2021, assessed 17 Mar. 2021) was “complete recovery”, the “final clinical outcome of long COVID” value (LONG-COVID-19 symptoms; Example 3, person, HEP-1 0.2 mg s.c. per day 29 Mar. 2021 until Apr. 24 2021, assessed 23 Apr. 2021) was “complete recovery” and the “mental ability” value (LONG-COVID-19 symptoms; Example 3, person, HEP-1 0.2 mg s.c. per day from 29 Mar. 2021, assessed 15 Apr. 2021) was “remarkable improvement”. For the same sequence, the “final clinical outcome of long COVID (persisting fatigue syndrome)” value (LONG-COVID-19 symptoms; Example 4, person, HEP-1 0.2 mg s.c. per day for 10 days) was “free of any symptoms”, the “final clinical outcome of long COVID (fatigue syndrome and cognitive disorder)” value (LONG-COVID-19 symptoms; Example 5, person, HEP-1 0.2 mg s.c. per day from 26 Feb. 2021, assessed 12 Mar. 2021) was “free of any symptoms” and the “final clinical outcome of long COVID” value (LONG-COVID-19 symptoms; Example 6, person, asthma, HEP-1 2 mg s.c. per day for 10 days, then 0.2 mg s.c. per day for 30 days, after 3 weeks of treatment) was “cured”. The “final clinical outcome of long COVID (fatigue, cognitive disorder, narcolepsy)” value (LONG-COVID-19 symptoms; Example 7, person, HEP-1 0.2 mg s.c. per day, after 11 days of treatment) was “symptoms completely disappeared”, the toxicity [1] was “not toxic” and the “anti-viral effect in cell cultures” value (cell cultures) was “shows an anti-viral effect”. For the same sequence, the “production of pro- and inflammatory cytokins (e.g. IL-1, IL-6, TNF-alpha)” value [2] was “reduces” and the “synthesis of alpha- and beta interferons” value [2] was “induces”.
